Data on 15 compounds can be found in patent US9133224B2, “Macrocyclic kinase inhibitors” (OSI Pharmaceuticals, LLC, priority 2010, dated 2015).

For data set [1] the following is noted: 22-membered ring.
For the next data set, the target named is T1, FAK (Homo sapiens, UniProt Q05397).
T1 construct: endogenous in cells; host or cells: U87MG glioblastoma cells (ATCC HTB-14)
Nature of the data set: Cell-based capture ELISA for inhibition of FAK autophosphorylation [pY397] in U87MG cells. An outline of the steps:
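U87MG cells on fibronectin-coated plates treated with compounds for 2 h at 37° C in complete growth medium (0.6% DMSO final). Lysates captured on anti-FAK ELISA plates; pY397 detected with phospho-specific antibody, HRP and chromogen at 450 nm. Variant run with 50% (v/v) mouse or human plasma.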
(In general: An ELISA detects its analyte on a solid surface through an enzyme-linked reagent.)

In data set [2] the target is T2, GST-tagged full-length FAK enzyme (PTK2) (Homo sapiens, UniProt Q05397).
T2 construct: GST-tagged full-length FAK enzyme (PTK2, Invitrogen PV4085); GST; purchased Invitrogen PV4085
Briefly: Biochemical Omnia Assay (FAK). An outline of the steps:
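GST-tagged full-length human FAK, added at 50 nM to compound and a peptide (40 μM)/ATP (200 μM) solution, stated before mixing. Omnia peptide phosphorylation followed continuously by fluorescence increase. Duplicate points; IC50 by nonlinear fitting of linear progress-curve slopes.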

The mark [3] stands for this setting: 50% (v/v) human plasma, mean IC50, read-out: FAK Activity Mechanistic (U87MG) HP.
The mark [4] stands for this setting: 50% (v/v) mouse plasma, mean IC50, read-out: FAK Activity Mechanistic (U87MG) MP.
Where [5] appears, read: no plasma present, mean IC50, read-out: FAK Activity Mechanistic (U87MG) NP.
Where [6] appears, read: from CCC[CH2][Sn]([CH2]CCC)([CH2]CCC)[c]1cn(CCCOP(=O)(Cc2ccc(Nc3ncc(C(F)(F)F)c(Nc4ccc(Br)nc4C(=O)NC)n3)c(OC)c2)OCC)nn1, cc_pd bond, 2 steps.
The mark [7] stands for this setting: from CCC[CH2][Sn]([CH2]CCC)([CH2]CCC)[c]1cn(CCCOP(=O)(CCC)Cc2ccc(Nc3ncc(C(F)(F)F)c(Nc4ccc(Br)nc4C(=O)NC)n3)c(OC)c2)nn1, cc_pd bond.

pIC50: −log10 of the molar value. Where two headings read alike, the source gives them in different places. A value given as a limit tells only on which side of the number the result lay.

T1 sequence (Q05397 whole entry): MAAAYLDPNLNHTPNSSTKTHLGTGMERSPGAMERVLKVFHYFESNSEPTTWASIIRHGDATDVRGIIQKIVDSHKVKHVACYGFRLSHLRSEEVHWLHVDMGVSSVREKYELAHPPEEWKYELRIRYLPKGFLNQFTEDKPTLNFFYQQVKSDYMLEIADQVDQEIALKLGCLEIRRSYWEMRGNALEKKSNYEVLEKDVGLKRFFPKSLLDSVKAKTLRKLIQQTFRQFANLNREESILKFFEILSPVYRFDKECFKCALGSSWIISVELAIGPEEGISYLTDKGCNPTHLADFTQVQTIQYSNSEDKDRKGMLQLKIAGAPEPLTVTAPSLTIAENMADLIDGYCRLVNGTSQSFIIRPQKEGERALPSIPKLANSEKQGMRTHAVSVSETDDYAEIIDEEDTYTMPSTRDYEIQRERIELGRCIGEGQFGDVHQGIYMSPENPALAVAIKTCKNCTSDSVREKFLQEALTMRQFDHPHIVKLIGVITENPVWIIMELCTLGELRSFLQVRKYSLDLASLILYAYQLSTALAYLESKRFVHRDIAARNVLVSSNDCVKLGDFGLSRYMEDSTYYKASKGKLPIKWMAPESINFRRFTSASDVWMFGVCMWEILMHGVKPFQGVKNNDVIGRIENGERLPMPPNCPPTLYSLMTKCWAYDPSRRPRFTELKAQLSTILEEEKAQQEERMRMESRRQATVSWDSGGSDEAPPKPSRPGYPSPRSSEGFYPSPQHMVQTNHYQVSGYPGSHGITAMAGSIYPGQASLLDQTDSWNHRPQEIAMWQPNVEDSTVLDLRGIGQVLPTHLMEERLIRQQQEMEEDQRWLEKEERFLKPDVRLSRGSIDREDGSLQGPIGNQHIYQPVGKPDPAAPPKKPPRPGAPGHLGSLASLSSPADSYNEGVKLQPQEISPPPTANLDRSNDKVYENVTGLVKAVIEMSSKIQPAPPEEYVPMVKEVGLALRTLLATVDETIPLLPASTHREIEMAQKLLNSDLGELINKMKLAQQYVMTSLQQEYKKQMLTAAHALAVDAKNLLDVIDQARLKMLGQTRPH
T2 sequence (Q05397 whole entry): as above

`CCO[P@]1(=O)Cc2ccc(c(OC)c2)Nc2ncc(C(F)(F)F)c(n2)Nc2ccc(cc2C(=O)N(CC)CC)-c2cnn(c2)CCCO1` (mixture of isomers) yielded a ring closure, isolated yield in data set [1] (from CCOP(=O)(O)Cc1ccc(Nc2ncc(C(F)(F)F)c(Nc3ccc(-c4cnn(CCCO)c4)cc3C(=O)N(CC)CC)n2)c(OC)c1, ester bond, PyBOP/DIEA, DCE/DMF, 1.03 mM, 25.0 °C) of 43%.
On to `CCOP1(=O)Cc2ccc(c(OC)c2)Nc2ncc(C(F)(F)F)c(n2)Nc2ccc(nc2C(=O)NC)-c2cc(C(=O)OC)n(c2)CCCO1` (racemic) [Example 38], for which the pIC50 on FAK (setting [3]) is more than 6.40; on FAK (setting [4]), 5.40 to 6.40; at FAK (setting [5]), more than 6.40; in data set [2], more than 6.40. In addition, where the note is “from CCOP(=O)(O)Cc1ccc(Nc2ncc(C(F)(F)F)c(Nc3ccc(-c4cc(C(=O)OC)n(CCCO)c4)nc3C(=O)NC)n2)c(OC)c1, ester bond, PyBOP/DIPEA, 1,2-dichloroethane, 1.53 mM, 25.0 °C, 24.0 h”, the ring closure, yield of all isomers was found to be 58%.
In turn, `CCO[P@@]1(=O)Cc2ccc(c(OC)c2)Nc2ncc(C(F)(F)F)c(n2)Nc2ccc(nc2C(=O)NC)-c2cn(nn2)CCCO1` had a ring closure, isolated yield in data set [1] (setting [6]) of 24%.
For the compound `CCOP1(=O)Cc2ccc(c(OC)c2)Nc2ncc(C(F)(F)F)c(n2)Nc2ccc(cc2C(=O)N(CC)CC)-c2cnn(c2)CCCO1` (racemic), the ring closure, yield of all isomers (from CCOP(=O)(O)Cc1ccc(Nc2ncc(C(F)(F)F)c(Nc3ccc(-c4cnn(CCCO)c4)cc3C(=O)N(CC)CC)n2)c(OC)c1, ester bond, PyBOP/DIPEA, 1,2-dichloroethane, 1.03 mM, 25.0 °C, 24.0 h) amounted to 43%.
With `CCC[P@]1(=O)Cc2ccc(c(OC)c2)Nc2ncc(C(F)(F)F)c(n2)Nc2ccc(nc2C(=O)NC)-c2cnn(c2)CCCO1` (mixture of isomers), in data set [1] (from CCCP(=O)(O)Cc1ccc(Nc2ncc(C(F)(F)F)c(Nc3ccc(-c4cnn(CCCO)c4)nc3C(=O)NC)n2)c(OC)c1, ester bond, DCC, 2 steps), the ring closure, isolated yield turned out to be 55%.
For the compound `CCCP1(=O)Cc2ccc(c(OC)c2)Nc2ncc(C(F)(F)F)c(n2)Nc2ccc(nc2C(=O)NC)-c2cn(nn2)CCCO1` (racemic), the ring closure, yield of all isomers under setting [7] was 19%.
Where the note is “from CCCP(=O)(O)Cc1ccc(Nc2ncc(C(F)(F)F)c(Nc3ccc(-c4cnn(CCCO)c4)nc3C(=O)NC)n2)c(OC)c1, ester bond, DCC, pyridine, 15.0 mM, 115.0 °C, 5.5 h, 2 steps”, `CCCP1(=O)Cc2ccc(c(OC)c2)Nc2ncc(C(F)(F)F)c(n2)Nc2ccc(nc2C(=O)NC)-c2cnn(c2)CCCO1` (racemic) came in with a ring closure, yield of all isomers of 55%.
`CCOP1(=O)Cc2ccc(c(OC)c2)Nc2ncc(C(F)(F)F)c(n2)Nc2ccc(nc2C(=O)NC)-c2cnn(c2)CC2(COC2)CO1` (racemic) came in with a ring closure, yield of all isomers (from CCOP(=O)(Cc1ccc(Nc2ncc(C(F)(F)F)c(Nc3ccc(Br)nc3C(=O)NC)n2)c(OC)c1)OCC1(Cn2cc(B3OC(C)(C)C(C)(C)O3)cn2)COC1, cc_pd bond, Pd(dppf)Cl2·CH2Cl2, K2CO3, 1,4-dioxane, 13.5 mM, 100.0 °C, 0.5 h) of 43%.
`CCO[P@@]1(=O)Cc2ccc(c(OC)c2)Nc2ncc(C(F)(F)F)c(n2)Nc2ccc(c3c2C(=O)N(C)C3)-c2cnn(c2)CCCO1` came in with a ring closure, yield of all isomers (from CCOP(=O)(O)Cc1ccc(Nc2ncc(C(F)(F)F)c(Nc3ccc(-c4cnn(CCCO)c4)c4c3C(=O)N(C)C4)n2)c(OC)c1, ester bond, PyBOP/DIPEA, 1,2-dichloroethane, 1.17 mM, 72.0 h) of 14.1%.
Consider `CCOP1(=O)Cc2ccc(c(OC)c2)Nc2ncc(C(F)(F)F)c(n2)Nc2ccc(nc2C(=O)NC)-c2cn(nn2)CCCO1` (single isomer, unassigned) [Example 64A], for which the pIC50 was more than 6.40 at FAK (setting [3]); more than 6.40 on FAK (setting [5]); more than 6.40 in data set [2] (mean IC50, [ATP] = 50uM, read-out: FAK Activity Biochemical OMNIA, [ATP] = 50uM). Under setting [6], the ring closure, yield of all isomers was found to be 24%.
With `CCC[P@@]1(=O)Cc2ccc(c(OC)c2)Nc2ncc(C(F)(F)F)c(n2)Nc2ccc(nc2C(=O)NC)-c2cn(nn2)CCCO1` (mixture of isomers), the ring closure, isolated yield in data set [1] (setting [7]) worked out at 19%.
`CCOP1(=O)Cc2ccc(c(OC)c2)Nc2ncc(C(F)(F)F)c(n2)Nc2ccc(nc2C(=O)NC)-c2cnn(c2)CCCO1` (racemic) [Example 6]: the pIC50 (on FAK (setting [3]); at FAK (setting [5]); in data set [2]) was more than 6.40 throughout.
`CCO[P@]1(=O)Cc2ccc(c(OC)c2)Nc2ncc(C(F)(F)F)c(n2)Nc2ccc(nc2C(=O)NC)-c2cc(C(=O)OC)n(c2)CCCO1` (mixture of isomers) returned a ring closure, isolated yield in data set [1] (from CCOP(=O)(O)Cc1ccc(Nc2ncc(C(F)(F)F)c(Nc3ccc(-c4cc(C(=O)OC)n(CCCO)c4)nc3C(=O)NC)n2)c(OC)c1, ester bond, PyBOP/DIEA, DCE, 1.53 mM, 25.0 °C) of 58%.
Turning to `CCOP1(=O)Cc2ccc(c(OC)c2)Nc2cc(c(C(F)(F)F)cn2)Nc2ccc(nc2C(=O)NC)-c2cnn(c2)CCCO1` (racemic) [Example 36], the pIC50 on FAK (setting [3]) was more than 6.40; on FAK (setting [4]) it was 5.40 to 6.40; at FAK (setting [5]) it was more than 6.40; in data set [2], more than 6.40.
`CCOP1(=O)Cc2ccc(c(OC)c2)Nc2ncc(C(F)(F)F)c(n2)Nc2ccc(c3c2C(=O)N(C)C3)-c2cnn(c2)CCCO1` (racemic) [Example 1]: the pIC50 (on FAK (setting [3]); on FAK (setting [5]); in data set [2]) was more than 6.40 in each case.
